{
  "source": "patent US20240216383A1",
  "about": "“FORMULATIONS AND METHODS FOR TREATING ERECTILE DYSFUNCTION” (Strategic Drug Solutions, Inc., priority 2020, published 2024)",
  "key": {"[1]": {"settings": "cited from earlier work; for half-life: oral, terminal half-life"}, "[2]": {"experiment": "Saturated solubility of sildenafil in water and organic-aqueous solvents (shake flask, HPLC)", "format": "physicochemical", "settings": "for solubility: water, thermodynamic from solid", "description": "Afterwards the solution was filtered using the VWR 0.2 mcron filter."}, "[3]": {"settings": "cited from earlier work"}, "[4]": {"settings": "cited from earlier work", "remark": "listed apart in the source"}, "[5]": {"experiment": "Saturated solubility of vardenafil API in water and organic-aqueous solvents (shake flask, HPLC)", "format": "physicochemical", "settings": "for solubility: water, pH 4, aqueous buffer, thermodynamic from solid, pH4", "method": "For screening of various organic solvents, the solubility of vardenafil API in different % ethanol-aqueous mixtures was first investigated and compared to solubility in pure water. As disclosed herein, the solutions were prepared by the “shake flask” method. Briefly, increasing amounts of vardenafil API were added to different mixtures until saturation. The saturated organic-aqueous mixtures were adjusted for pH (at the range pH 3.5-7.5) with the use of a pH meter. The saturated solution was shaken slowly with a magnetic stirrer at room temperature or shaken rapidly several times a day for 24 hours or longer, up to 3 days. Afterwards, the solutions were filtered using the VWR 0.2 micron filter. The filtrate was then used for inspection of clarity and concentration was determined by HPLC. In addition, the saturated solubility of vardenafil various organic-aqueous solution, e.g., in glycerin (glycerol), polyethylene glycol 400 (PEG) and combination of two organic solvents were investigated. Vardenafil solubility in some other representative organic-aqueous solutions were also investigated.\nThe standard curves were prepared in MeOH and mixed with PBS so that the analytical matrices were the same."}, "[6]": {"experiment": "Vardenafil permeability (Papp) and flux (Jss) by PAMPA", "format": "in vitro ADME", "description": "As disclosed herein, the permeability of vardenafil API in different solvents at room temperature and atmospheric pressure was screened using in vitro PAMPA. The PAMPA predicts passive absorption of drugs and is suitable for studies with many solutions including ethanol (up to concentration of 30%)(22-24). The unit of measurement is the apparent permeability (Papp) obtained at steady state, expressed as cm/second. Also another associated measurement is the maximum flux (Jss) at a particular pH, expressed as the quantity of drug across the unit area per sec, is calculated from the Papp and saturated solubility. […]\nApparent permeability coefficient (Papp) determination, expressed as cm/sec, was calculated based on the following equation at steady state (24) where • VD=volume in donor chamber • VA=volume in acceptor chamber • A=effective area of the membrane (PAMPA: 0.3 cm^2) • t=duration of the permeability study • CA=drug concentration in the acceptor well at the end of the study • CE=equilibrium concentration in both wells, and […]\nSteady state flux (Jss). The Jss, expressed as ug/sec/cm^2, was calculated based on the following equation where • CD=loading concentration in the donor chamber […]"}},
  "note": "Counter-ions that a name gives are not always drawn. Like-named read-outs stand apart in the source and are kept apart here.",
  "data": [
    {"compound": "CCCc1nc(C)c2c(=O)[nH]c(-c3cc(S(=O)(=O)N4CCNCC4)ccc3OCC)nn12", "note": "[MI metabolite]", "values": [
      {"measurement": "share of total pharmacologic activity", "setting": "[1]; metabolite of vardenafil", "value": "about 7%"}
    ]},
    {"compound": "CCCc1nn(C)c2c(=O)[nH]c(-c3cc(S(=O)(=O)N4CCN(C)CC4)ccc3OCC)nc12", "note": "[sildenafil]", "values": [
      {"measurement": "aqueous solubility", "setting": "[2]; sildenafil, pHmax 4.2", "value": 3.54, "unit": "mg/mL"},
      {"measurement": "solubility", "setting": "[2]; pH 4, aqueous buffer, read-out: aqueous saturated solubility", "value": "< 5", "unit": "mg/mL"},
      {"measurement": "solubility", "setting": "[2]; pH 4.55, aqueous buffer, read-out: aqueous solubility", "value": 3.34, "unit": "mg/mL"},
      {"measurement": "log P", "setting": "[3]", "value": 2.7},
      {"measurement": "pKa", "setting": "[3]; vardenafil: 7.15 mostly basic, 9.86 mostly acidic", "value": 7.2},
      {"measurement": "solubility in water", "setting": "[4]; pH 3-4", "value": "about 7.0 mg/ml"},
      {"measurement": "solubility in water", "setting": "[4]; pH 5", "value": "~2.1", "unit": "mg/mL"},
      {"measurement": "solubility in water", "setting": "[4]; pH 7", "value": "~0.03", "unit": "mg/mL"},
      {"measurement": "absolute bioavailability", "setting": "[1]; oral administration", "value": "about 41%"},
      {"measurement": "mean time (Tmax) for maximum plasma concentration", "setting": "[1]; oral administration", "value": "about 60 min"},
      {"measurement": "half-life", "setting": "[1]", "value": "about 4 h"}
    ]},
    {"compound": "CN1CC(=O)N2[C@H](c3ccc4c(c3)OCO4)c3[nH]c4ccccc4c3C[C@@H]2C1=O", "note": "[tadalafil]", "values": [
      {"measurement": "mean time (Tmax) for maximum plasma concentration", "setting": "[1]; following a single dose", "value": "about 2 h"},
      {"measurement": "absolute bioavailability", "setting": "[1]; oral administration", "value": "≤ 80", "unit": "%"},
      {"measurement": "half-life", "setting": "[1]", "value": "about 17.5 h"}
    ]},
    {"compound": "CCCc1nc(C)c2c(=O)[nH]c(-c3cc(S(=O)(=O)N4CCN(CC)CC4)ccc3OCC)nn12", "note": "[vardenafil API, vardenafil hydrochloride trihydrate]", "values": [
      {"measurement": "time until precipitation", "setting": "[5]; solubilized in 12% alcohol", "value": "≤ 24", "unit": "h"},
      {"measurement": "solubility", "setting": "[5]; read-out: mean saturated solubility in water", "value": "< 20", "unit": "mg/mL"}
    ]},
    {"compound": "CCCc1nc(C)c2c(=O)[nH]c(-c3cc(S(=O)(=O)N4CCN(CC)CC4)ccc3OCC)nn12", "note": "[vardenafil]", "values": [
      {"measurement": "JsspHmax", "setting": "[6]; vardenafil aqueous, pH4", "value": "7.74 E-05 ug/s/cm^2"},
      {"measurement": "Jss(ref)", "setting": "[6]; vardenafil, Solmin 20 mg/ml, IN dose 2 mg/nostril, pHmax pH4", "value": "8.5E-05", "unit": "ug/s/cm^2"},
      {"measurement": "log P", "setting": "[3]", "value": 3.64},
      {"measurement": "solubility", "setting": "[5]; read-out: V(ssol)pHmax, aqueous saturated solubility at pHmax", "value": 18.2, "unit": "mg/mL"},
      {"measurement": "solubility", "setting": "[4]; pH 1", "value": "about 8.8 g/L"},
      {"measurement": "solubility", "setting": "[4]; pH 2", "value": "~3", "unit": "mg/mL"},
      {"measurement": "solubility", "setting": "[4]; pH 3", "value": "~1.6", "unit": "mg/mL"},
      {"measurement": "aqueous solubility", "setting": "[4]; pH 4-7", "value": "less than 2 mg/ml"},
      {"measurement": "solubility", "setting": "[4]; pH 4", "value": "~0.88", "unit": "mg/mL"},
      {"measurement": "solubility", "setting": "[4]; pH 5", "value": "~0.16", "unit": "mg/mL"},
      {"measurement": "solubility", "setting": "[4]; pH 6", "value": "~0.019", "unit": "mg/mL"},
      {"measurement": "absolute bioavailability", "setting": "[1]; oral administration", "value": "about 15%"},
      {"measurement": "mean time (Tmax) for maximum plasma concentration", "setting": "[1]; oral administration", "value": "about 60 min"}
    ]}
  ]
}
